Reference: paper PMC3024946, “Hydroxyproline-containing collagen analogs trigger the release and activation of collagen-sequestered proMMP-2 by competition with prodomain-derived peptide P33-42” (Fibrogenesis & Tissue Repair, 2011)

Assays:
ActMMP-2 [1] = experiment: Solid-phase binding of [125I]-actMMP-2 to immobilized collagens/peptides (microwells); design: species or system human; settings: ActMMP-2, 2 ng/well; coated wells; 4°C, 2 h; residual radioactivity; mean ± SD, at least five experiments in triplicate
Description: (§1) Human recombinant proMMPs and in vitro activated MMPs were obtained from Invitek and were labeled with the [^125I]-Bolton-Hunter reagent according to the manufacturer's instructions (PerkinElmer, Rodgau, Germany) before the buffer was exchanged for phosphate-buffered saline (PBS) with 0.05% (vol/vol) Tween 20 by gel filtration as described previously. Specific radioactivity for [^125I]-MMPs was 3-9 × 10^4 cpm/ng. Precipitation with 10% (wt/vol) trichloroacetic acid and 200 μg of BSA recovered 96% to 100% of protein-bound radioactivity. Aliquots of labeled MMPs were frozen and stored at -80°C. The activity and integrity were checked by substrate gel zymography using SDS-PAGE and autoradiography with overnight exposure to Biomax MS film (Kodak, Stuttgart, Germany) (Figure 2A).
(§2) Native human CI, CIII and CVI were purified from skin tissue and placenta. The CI single chains α1(I) and α2(I) were obtained and modified as described previously. To prepare defined fragments, 2 mg of α1(I) were dissolved in 1 ml of 70% (vol/vol) formic acid at room temperature, the tubes were flushed with nitrogen for 10 min, and then 2 mg of CB were added. After incubation for 4 h at 37°C, free CB was neutralized and the samples were lyophilized. The peptides CB3, CB6, CB7 and CB8 were separated from the reaction mixture by gel filtration followed by ion-exchange chromatography. The resulting peptides were characterized by amino acid analysis and SDS-PAGE [45, 46]. The CB peptides had the following melting temperatures: CB3, 23.9°C; CB6, 26.7°C; CB7, 28.1°C; and CB8, 28.0°C [31].
(§3) The following collagen analogs and control peptides were synthesized as described previously: (GPO)10, H-Gly-Cys-Hyp-(Gly-Pro-Hyp)10-Gly-Cys-Hyp-Gly-NH2; (GPP)10, H-Gly-Cys-Pro-(Gly-Pro-Pro)10-Gly-Cys-Pro-Gly-NH2; and GAP, H-Gly-Ala-Cys-(Gly-Ala-Pro)5-Gly-Phe-Hyp-Gly-Glu-Arg-(Gly-Ala-Pro)5-NH2. Peptides (POG)10, (PPG)10 and (POG)5 were purchased from Peptide International (Louisville, KY, USA). Spontaneous triple-helix assembly was approved by polarimetry over a 10-cm path length at 1°C/min in 10 mM phosphate buffer, pH 7.4. At 5 mg/ml, midpoints of melting curves occurred at 82.3 ± 1.4°C for (GPO)10 and at 45.8 ± 0.8°C for (GPP)10. […] Graphs were calculated from the primary data using a custom fitting program written by D.A. Slatter (Department of Biochemistry, University of Cambridge, Cambridge, UK [48]) to model different possible transitions. All collagens, CI derivatives and peptides were stored in stock solutions of 2 mg/ml in 150 mM acetic acid at -20°C.
(§4) ProMMP-2 and proMMP-9 or actMMP-2 and actMMP-9 were bound to nitrocellulose and polystyrene-immobilized native collagens, CI chains, CB peptides or structural analogs. Serial dilutions of collagens or CI derivatives in 150 mM acetic acid were dotted at 3 × 3 μl to a nitrocellulose membrane with high protein-binding capacity (GE Healthcare, Munich, Germany). Air-dried membranes were blocked with PBS and 0.3% (vol/vol) Tween 20 overnight at 4°C, washed three times, and incubated with 1 ng/ml [^125I]-pro- and actMMP-2 and pro- and actMMP-9 in PBS and 0.3% (vol/vol) Tween 20 for 2 h at room temperature. Membranes were washed again and air-dried, and bound MMP was monitored by autoradiography. In parallel, polystyrene microtiter plates (Dynex, Chantilly, VA, USA) were coated with collagen proteins and peptides. Here 2 μg/well or 200 ng/well proteins and peptides or BSA as control were immobilized in 100 μl of 50 mM ammonium bicarbonate buffer, pH 9.6, by overnight incubation at 4°C. Immobilization efficacies were 20% to 45% of total proteins. Wells were washed three times with PBS, and nonspecific binding sites were blocked with PBS and 0.05% (vol/vol) Tween 20 for 1 h at room temperature. All incubation steps were performed with 2 ng of [^125I]-MMPs at 4°C for 2 h. […]

ActMMP-9 = experiment: Solid-phase binding of [125I]-actMMP-9 to immobilized collagens/peptides (microwells); design: species or system human; settings: ActMMP-9, 2 ng/well; coated wells; 4°C, 2 h; residual radioactivity; mean ± SD, at least five experiments in triplicate
Description: as §1, §2, §3, §4

ProMMP-2 [2] = experiment: Solid-phase binding of [125I]-proMMP-2 to immobilized collagens/peptides (microwells); design: species or system human; settings: ProMMP-2, 2 ng/well; coated wells; 4°C, 2 h; residual radioactivity; mean ± SD, at least five experiments in triplicate
Description: as §1, §2, §3, §4

ProMMP-9 = experiment: Solid-phase binding of [125I]-proMMP-9 to immobilized collagens/peptides (microwells); design: species or system human; settings: ProMMP-9, 2 ng/well; coated wells; 4°C, 2 h; residual radioactivity; mean ± SD, at least five experiments in triplicate
Description: as §1, §2, §3, §4

ProMMP-2 [3] = experiment: Fluorogenic short-substrate assay, activation of proMMP-2; format: biochemical, human; settings: proMMP-2; CI-coated wells
Description: (§5) Enzymatic activities of MMPs were studied spectrofluorimetrically by cleavage of fluorogenic substrates in MMP activity buffer within 2 to 5 h. For gelatinases 800 nM MCA-Pro-Leu-Gly-Leu-Dnp-Dap-Ala-Arg-NH2 (λex/em 328/393 nm; Bachem, Bubendorf, Switzerland) or 10 μg/ml DQ-gelatine were used, according to the method described by Knight et al. for collagenases 800 nM MCA-Pro-Cha-Gly-Nva-His-Ala-Dpa-NH2 (λex/em 280/360 nm; Anaspec, San José, CA, USA). In some experiments, proMMP-2 was fully activated in the presence of 1 mM APMA prior to the kinetic measurements. A quantity of 50 ng pro- or actMMP-2 alone or mixed with 10- to 150-fold molar excesses of (GPO)10, GAP, P33-42 or mixtures of (GPO)10 and P33-42, were added to CI-coated, BSA-coated (1 μg/well both) or uncoated wells containing 150 μl of the respective substrate solution. The peptide P33-42 was purchased from the Institute of Biochemistry (Humboldt-University, Berlin, Germany). The influence of CI on MMP-2 enzymatic activity against the quenched fluorescent substrate could be excluded. Background subtraction (measurement without MMPs) was applied to all curves. All experiments were performed with a fluorescence microplate reader (Molecular Devices, Sunnyvale, CA, USA) and black 96-well microtiter plates with a clear bottom (Greiner bio-one, Frickenhausen, Germany).

ActMMP-2 [4] = experiment: Fluorogenic short-substrate assay, activity of actMMP-2; format: biochemical, human; settings: CI-coated wells
Description: as §5

[5] = soluble human placenta-isolated triple-helical portion of CI; ref [30]; cited from earlier work
Excerpt: We tested α1(I) chains, which rapidly refold into triple-helical conformation in neutral buffers at room temperature, as well as CB-peptides of the α1(I) chain, where the length of the triple helix affects their thermal stability. Here the strength of binding of proMMP-2 and proMMP-9 to CB peptides directly correlated to the thermal stability of its tri ... || Native human CI, CIII and CVI were purified from skin tissue and placenta. The CI single chains α1(I) and α2(I) were obtained and modified as described previously. To prepare defined fragments, 2 mg of α1(I) were dissolved in 1 ml of 70% (vol/vol) formic acid at room temperature, the tubes were flushed with nitrogen for 10 min, and then 2 mg of CB were added. After incubation for 4 h at 37°C, free CB was neutralized and the samples were lyophilized. The peptides CB3, CB6, CB7 and CB8 were separated from the reaction mixture by gel filtration followed by ion-exchange chromatography. The ...

Binding of [125I]-MMPs (ActMMP-2 [1]): 11.1 ± 1.8 % of maximum control | Binding of [125I]-MMPs (ActMMP-9): 3.1 ± 0.5 % of maximum control | Binding of [125I]-MMPs (ProMMP-2 [2]): 24.0 ± 5.6 % of maximum control | Binding of [125I]-MMPs (ProMMP-9): 30.9 ± 3.1 % of maximum control
Substance: CI: native human collagen type I purified from skin tissue and placenta
effect of CI coating on activity (ProMMP-2 [3]): strong reduction in activity | effect of CI coating on activity (ActMMP-2 [4]): strong reduction in activity | melting temperature [5]: 33.8 °C
